Experiments:
THP-1 blue cells = experiment: Cell viability of THP-1 blue cells (Cell Titer-Glo); format: cell-based, human
Procedure: 200000 cells/well were seeded in 100 μl of culture medium in 96 well flat bottom transparent plates. […] 20 μl of culture media containing (or not) LPS 055:B5 (Sigma) (100 ng/ml final) was added and the plates were incubated for 16 hours at 37° C. in a 5% CO2/air incubator.
Cell culture supernatants were carefully transferred to 96 well-plates for NF-κB activity measurement which is proportional to the level of secreted alkaline phosphatase. Briefly, 100 μl of supernatants were mixed with 150 μl of QuantiBlue (Invivogen) in a 96 well-plates incubated for 3 h at 37° C. before OD measurements at 620 nm with Sunrise microplate reader (Tecan, Mannedorf, Switzerland). Cell viability was determined using Cell Titer-Glo kit as described above.

AREc32 cells = experiment: Cell viability of AREc32 cells (ATP quantification, Cell Titer-Glo); format: cell-based; conditions: 24 hours
Procedure: To determine the Nrf2 activation the samples were tested on AREc32 cells (seeded in 96 well plates) using 10 independent dilutions (½, ¼, ⅙, 1/10, 1/15, 1/20, 1/25, 1/30, 1/40 and 1/50) and incubated for 24 hours at 37° C. in a 5% CO2/air incubator. The luciferase activity and the cell viability (ATP measurements) were determined using the Luciferase and Cell Titer-Glo kits from Promega.
The cell viability was also measured using a cell Titer-Glo kit (ATP quantification).

NF-κB [1] = experiment: NF-κB activity (secreted alkaline phosphatase) in THP-1 blue cells; format: cell-based, human; conditions: THP-1 blue cells stimulated with LPS
Procedure: Human monocytes/macrophages THP-1 blue cells (passage 16-20) (Invivogen, Toulouse, France) were cultured in modified RPMI medium (ATCC, Manassas, Va.) containing 1 mM of sodium pyruvate, 2 mM of L-glutamine, 4.5 g/L of glucose and 10 mM of HEPES supplemented with 10% of heat inactivated FCS (Bioconcept), 1% of Penicillin/Streptomycin (Sigma) and 500 μg/ml of Zeocin (Invivogen) at 37° C. in a 5% CO2/air incubator. 200000 cells/well were seeded in 100 μl of culture medium in 96 well flat bottom transparent plates. […] 20 μl of culture media containing (or not) LPS 055:B5 (Sigma) (100 ng/ml final) was added and the plates were incubated for 16 hours at 37° C. in a 5% CO2/air incubator. Cell culture supernatants were carefully transferred to 96 well-plates for NF-κB activity measurement which is proportional to the level of secreted alkaline phosphatase. Briefly, 100 μl of supernatants were mixed with 150 μl of QuantiBlue (Invivogen) in a 96 well-plates incubated for 3 h at 37° C. before OD measurements at 620 nm with Sunrise microplate reader (Tecan, Mannedorf, Switzerland). Cell viability was determined using Cell Titer-Glo kit as described above.

Nrf2 = Nrf2 reporter assay (ARE-luciferase) in AREc32 cells; format: cell-based; conditions: 24 hours
Procedure: Activation of Nrf2 was measured using an Nrf2 reporter assay. This assay is based on the AREc32 cell line, from CRX biosciences (Dundee, Scotland), a stably transfected MCF7 (breast adenocarcinoma) cell line that contains a luciferase gene construct under the control of the ARE. […] Anti-oxidative molecules such as Tert-butylhydroquinone (TBHQ) induce luciferase transcription via the activation of Nrf2 that binds to ARE. Luciferase activity is determined using a luciferase kit form Promega (Madison, Wis.). The luciferase activity is proportional to the activation of Nrf2. […] The luciferase activity and the cell viability (ATP measurements) were determined using the Luciferase and Cell Titer-Glo kits from Promega. For each run the luciferase activities, measured in Relative Light Units (RLU), of all the wells were normalized with the mean of the luciferase activity of the cells only of all the plates. […] For each sample the Nrf2 activation was calculated as follows: 1) The Nrf2 fold induction: The Nrf2 fold induction is very useful for screening purposes. […] The luciferase content per sample allows a semi quantification of the Nrf2 activation by reflecting the amount of the Nrf2 activating molecule. […] The cell viability was also measured using a cell Titer-Glo kit (ATP quantification).

NF-κB [2] = experiment: NF-κB activity (SEAP and IL-8 production) in HT-29 clone 34 cells; format: cell-based, human
Procedure: The human colonic adenocarcinoma HT-29 clone 34 cell line (passage 42-50) are adherent cells stably transfected with a NF-κB/SEAP reporter plasmid. They were cultured in DMEM high glucose (4.5 g/L) (Invitrogen) containing 1% of stable L-glutamine and supplemented with 10% of heat inactivated (one hour at 56° C.) Foetal Calf Serum (FCS) (Bioconcept, Allschwil, Switzerland), 1% of Penicillin/Streptomycin (Sigma) and 500 μg/ml of Geneticin (PAA, Pasching, Austria) at 37° C. in a 5% CO2/air incubator. Culture medium was renewed every two days until the cell monolayer reached ˜90% confluence. Cells were sub-cultured using 1× Trypsin/EDTA (Sigma).
(§1) 10000 cells/well were seeded in 200 μl of culture medium in flat bottom white border 96 well plates (Greiner Bio One, Kremsmuenster, Austria). […] 20 μl of experimental medium containing (or not) LPS 055:B5 or rhTNF-α (100 and 10 ng/ml final, respectively) was added and the plates were incubated for 24 hours at 37° C. in a 5% CO2/air incubator.
Cell culture supernatants were then collected for measurement of NF-κB activity (determination of secreted alkaline phosphatase and IL-8 production) using Phosphalight (Applied Biosystems) and IL-8 singleplex (Meso Scale, Gaithersburg, Md.) kits, respectively.

HT-29 clone 34 cells = experiment: Cell viability of HT-29 clone 34 cells (ATP, Cell Titer-Glo); format: cell-based, human; conditions: ATP measurement
Procedure: as §1
Cell viability was determined by measuring ATP using a Cell Titer-Glo kit (Promega). Briefly, remaining adherent HT-29 clone 34 cells were incubated for 10 min at room temperature under horizontal shaking (250 rpm) with 120 μl of Cell Titer-Glo reagent (pre-diluted twice in 1×PBS) and the luminescence was measured using Polarstar microplate reader (BMG, Offenburg, Germany) for 1000 ms with a gain value set to 3500.

[3] = HT-29 clone 34 cells stimulated with LPS

In the case of `CC(=O)/C=C/C(=O)O` [4-oxo-2-pentenoic acid], the “Doses toxic to cells” value (THP-1 blue cells) is reported as “higher than 75 μM”, the “Doses at which viability of AREc32 cells was not affected” value (AREc32 cells) is reported as “lower than 70 μM” and the “Doses giving strong NF-κB inhibition” value (NF-κB [1]) is reported as 40 to 75 µM. For the same compound, the “Nrf2 activation (in words)” value (Nrf2) was “strongly activate Nrf2 in a dose dependent manner”, the “Optimal dose of Nrf2 activation” value (Nrf2; dose range 0 to 200 μM) was 40 to 50 µM and the “Dose giving the best inhibition of SEAP and IL-8 secretion” value (NF-κB [2]; [3]) was 50 µM. The “Inhibition of NF-κB activity (in words)” value (NF-κB [2]; [3]) was “inhibits NF-κB activity in a dose dependent manner”, the “NF-κB activity (SEAP or IL-8) in the absence of LPS” value (NF-κB [2]; HT-29 clone 34 cells, no LPS, doses tested 3 to 400 μM) was “no NF-κB activity was observed” and the “Doses giving a decrease in cell viability of HT-29 clone 34 cells” value (HT-29 clone 34 cells) was > 50 µM.
